Assay results taken from US20240368157A1, “FORMS AND COMPOSITIONS OF A JAK2 INHIBITOR” (Ajax Therapeutics, Inc., priority 2023, published 2024).
≈ marks a conversion by molar mass, not a printed value. Read-outs that look alike come from different tables or passages of the source. Marks after values point to notes of the source that are not given here.

Columns and labels:
[1] = Approximate solubility estimates (solvent incremental addition, visual observation); type: physicochemical; conditions: for solubility: thermodynamic from solid
Protocol: Approximate solubility estimates of Compound 1 Lot I were ascertained using the solvent incremental addition method and visual observation (Table 2.1). […] Approximate solubilities were calculated based on the total solvent used to achieve a solution, as judged by visual observation. Actual solubilities may be greater because of the volume of solvent portions utilized or a slow rate of dissolution. […] If dissolution occurred at the first aliquot, the value was reported as “>”

[2] = Exposure experiments at high relative humidity; type: physicochemical; conditions: RT, 17 days
Protocol: In a series of exposure experiments, Compound 1 Lot I was exposed to high relative humidity. Generally, approx. 50 mg Compound 1 was transferred to vials, and the vials were placed open in chambers containing saturated aqueous solutions of various salts, which are known to generate various relative humidity levels in the chambers. See, e.g., “Standard Practice for Maintaining Constant Relative Humidity by Means of Aqueous Solutions” ASTM Standard E 104-85 (1996); “Humidity Fixed Points of Binary Saturated Aqueous Solutions” Greenspan, L. J. Res. Natl. Bur. Stand., Sect. A […], 81A, 89-96; “Saturated Salt Solutions for Maintaining Specified Relative Humidities” Nyqvist, H. E. Int. J. Pharma. Technol. Prod. Manuf. 1983, 4, 47-48; and “Evaluation of Relative Humidity Values for Saturated Aqueous Salt Solutions Using Osmotic Coefficients Between 50 and 100° C.” Moisture Humidity, Proc. Int. Symp. 1985, 577-96.

[3] = Dynamic vapor sorption (DVS); type: physicochemical; conditions: for Hysteresis: in % (unit assumed); for weight gain during sorption: DVS; for XRPD pattern of the post-DVS sample: after DVS experiment
Protocol: Moisture sorption/desorption data were collected on a Surface Measurement System DVS Intrinsic instrument. Samples were not dried prior to analysis. Sorption and desorption data were collected over a range from 5% to 95% RH to 5% RH at 10% RH increments under a nitrogen purge. The equilibrium criterion used for analysis was less than 0.0100% weight change in 5 minutes with a maximum equilibration time of 3 hours. Data were not corrected for the initial moisture content of the samples.

[4] = Stability stress studies on Form B (RH/temperature exposure, XRPD); type: physicochemical
Protocol: Stability stress studies were conducted on Form B by exposing samples to three conditions: 57.5% RH/RT; 97.3% RH/RT, and 75% RH/40° C. and collecting XRPD data at two time points (14 and 28 days).

[5] = Slurry in water at ambient temperature (XRPD); type: physicochemical; conditions: 5 days
[6] = Interconversion slurry experiments; conditions: interconversion slurries, ambient temperature to 65° C.
Protocol: Mixtures of Form H and Form I with Form B were utilized in these interconversion slurry experiments. […] The interconversion slurries were performed at ambient and elevated (65° C.) temperatures in various solvents and solvent mixtures.

`CN(C)C(=O)Nc1cc(Oc2cnc3nc(Nc4cc(C(F)(F)F)cn(C)c4=O)n(C)c3c2C#N)ccn1` [Compound 1 Lot II] gave a solubility ([1]; 1-BuOH:H2O (90:10), 80 °C, organic solvent or mixture, 1-BuOH:H2O (90:10), aw = 0.82, 80° C., read-out: Solubility) of 4000 µg/mL (≈ 7580 µM) and a solubility ([1]; 1-BuOH:H2O (96:4), 85 °C, organic solvent or mixture, 1-BuOH:H2O (96:4), aw = 0.49, 85° C., read-out: Solubility) of 1000 µg/mL (≈ 1900 µM).

For `CN(C)C(=O)Nc1cc(Oc2cnc3nc(Nc4cc(C(F)(F)F)cn(C)c4=O)n(C)c3c2C#N)ccn1` [Compound 1 Lot I], the solubility ([1]; 2-butanone (MEK), organic solvent or mixture, 2-butanone (MEK), ambient, read-out: Solubility) was 1000 µg/mL (≈ 1900 µM), the “Solubility (mg/mL)” value ([1]; AcOH, ambient) was >59^b mg/mL and the solubility ([1]; AcOH:H2O (20:80), aqueous with cosolvent or surfactant or cyclodextrin, AcOH:H2O (20:80), aw = 0.94, ambient, read-out: Solubility) was 1000 µg/mL (≈ 1900 µM). It also gave a solubility ([1]; AcOH:H2O (50:50), aqueous with cosolvent or surfactant or cyclodextrin, AcOH:H2O (50:50), aw = 0.84, ambient, read-out: Solubility) of 14000 µg/mL (≈ 26500 µM), a solubility ([1]; AcOH:H2O (85:15), organic solvent or mixture, AcOH:H2O (85:15), aw = 0.51, ambient, read-out: Solubility) greater than 51000 µg/mL and a solubility ([1]; CHCl3, organic solvent or mixture, CHCl3, ambient, read-out: Solubility) of 2000 µg/mL (≈ 3790 µM). For the same compound, the solubility ([1]; DMA, organic solvent or mixture, DMA, ambient, read-out: Solubility) was 8000 µg/mL (≈ 15200 µM), the solubility ([1]; DMSO, organic solvent or mixture, DMSO, ambient, read-out: Solubility) was 6000 µg/mL (≈ 11400 µM) and the solubility ([1]; EtOAc, organic solvent or mixture, EtOAc, ambient, read-out: Solubility) was less than 1000 µg/mL. The solubility ([1]; EtOH:H2O (90:10), organic solvent or mixture, EtOH:H2O (90:10), aw = 0.49, ambient, read-out: Solubility) was 1000 µg/mL (≈ 1900 µM), the solubility ([1]; MIBK, organic solvent or mixture, MIBK, ambient, read-out: Solubility) was less than 1000 µg/mL and the solubility ([1]; MeCN, organic solvent or mixture, MeCN, ambient, read-out: Solubility) was less than 1000 µg/mL. For the same compound, the solubility ([1]; MeOH, organic solvent or mixture, MeOH, ambient, read-out: Solubility) was less than 1000 µg/mL, the solubility ([1]; MeOH:CHCl3 (50:50), organic solvent or mixture, MeOH:CHCl3 (50:50), ambient, read-out: Solubility) was less than 1000 µg/mL and the solubility ([1]; MeOH:DCM (1:3), organic solvent or mixture, MeOH:DCM (1:3), ambient, read-out: Solubility) was 37000 µg/mL (≈ 70100 µM). The solubility ([1]; MeOH:H2O (90:10), organic solvent or mixture, MeOH:H2O (90:10), aw = 0.29, ambient, read-out: Solubility) was 1000 µg/mL (≈ 1900 µM), the solubility ([1]; NMP, organic solvent or mixture, NMP, ambient, read-out: Solubility) was 8000 µg/mL (≈ 15200 µM) and the solubility ([1]; TFE, organic solvent or mixture, TFE, ambient, read-out: Solubility) was 17000 µg/mL (≈ 32200 µM). For the same compound, the solubility ([1]; THF, organic solvent or mixture, THF, ambient, read-out: Solubility) was less than 1000 µg/mL, the solubility ([1]; acetic acid (AcOH), organic solvent or mixture, AcOH, ambient, read-out: Solubility) was greater than 59000 µg/mL and the solubility ([1]; acetone, organic solvent or mixture, Acetone, ambient, read-out: Solubility) was 1000 µg/mL (≈ 1900 µM). The solubility ([1]; acetone:H2O (90:10), organic solvent or mixture, acetone:H2O (90:10), aw = 0.69, ambient, read-out: Solubility) was 2000 µg/mL (≈ 3790 µM), the solubility ([1]; i-PrOH, organic solvent or mixture, i-PrOH, ambient, read-out: Solubility) was less than 1000 µg/mL and the solubility ([1]; organic solvent or mixture, 10% water added to acetone, ethanol, and methanol, ambient, read-out: solubility after addition of 10% water) was 1000 to 2000 µg/mL (≈ 1900 to 3790 µM). The solubility ([1]; organic solvent or mixture, in acetone, chloroform, MEK, and aprotic solvents DMSO, DMAc, and NMP, ambient, read-out: limited solubility) was 1000 to 8000 µg/mL (≈ 1900 to 15200 µM), the solubility ([1]; toluene, organic solvent or mixture, toluene, ambient, read-out: Solubility) was less than 1000 µg/mL and the solubility ([1]; water, H2O, ambient, read-out: Solubility) was less than 1000 µg/mL. For the same compound, the “XRPD Result” value ([2]; 75% RH) was “Forms B + C + larger peaks”, the weight gain ([2]; 75% RH) was 0.56% weight gain and the “XRPD Result” value ([2]; 97% RH) was “Forms B + C + peaks”. The weight gain ([2]; 97% RH) was 0.71% weight gain.

With `CN(C)C(=O)Nc1cc(Oc2cnc3nc(Nc4cc(C(F)(F)F)cn(C)c4=O)n(C)c3c2C#N)ccn1` [Form B] the “Desorp Mass Change (%)” value ([3]; DVS cycle 1, target RH 5%) was −0.0297%, the “Sorp Mass Change (%)” value ([3]; DVS cycle 1, target RH 5%) was 0.0003% and the “Desorp Mass Change (%)” value ([3]; DVS cycle 1, target RH 15%) was 0.0109%. The “Sorp Mass Change (%)” value ([3]; DVS cycle 1, target RH 15%) was 0.0327%, the Hysteresis ([3]; DVS cycle 1, target RH 15%) was −0.0218 and the “Desorp Mass Change (%)” value ([3]; DVS cycle 1, target RH 25%) was 0.048%. The “Sorp Mass Change (%)” value ([3]; DVS cycle 1, target RH 25%) was 0.0627%, the Hysteresis ([3]; DVS cycle 1, target RH 25%) was −0.0147 and the “Desorp Mass Change (%)” value ([3]; DVS cycle 1, target RH 35%) was 0.0903%. The “Sorp Mass Change (%)” value ([3]; DVS cycle 1, target RH 35%) was 0.0974%, the Hysteresis ([3]; DVS cycle 1, target RH 35%) was −0.0071 and the “Desorp Mass Change (%)” value ([3]; DVS cycle 1, target RH 45%) was 0.1586%. The “Sorp Mass Change (%)” value ([3]; DVS cycle 1, target RH 45%) was 0.1439%, the Hysteresis ([3]; DVS cycle 1, target RH 45%) was 0.0147 and the “Desorp Mass Change (%)” value ([3]; DVS cycle 1, target RH 55%) was 0.2045%. The “Sorp Mass Change (%)” value ([3]; DVS cycle 1, target RH 55%) was 0.1803%, the Hysteresis ([3]; DVS cycle 1, target RH 55%) was 0.0241 and the “Desorp Mass Change (%)” value ([3]; DVS cycle 1, target RH 65%) was 0.2463%. For the same compound, the “Sorp Mass Change (%)” value ([3]; DVS cycle 1, target RH 65%) was 0.2227%, the Hysteresis ([3]; DVS cycle 1, target RH 65%) was 0.0235 and the “weight gain during sorption” value ([3]; 5-95% RH) was 0.43%. For the same compound, the “XRPD pattern of the post-DVS sample” value [3] was “consistent with Form B”, the hygroscopicity ([3]; judged from DVS sorption/desorption) was “non-hygroscopic” and the “XRPD Result” value ([4]; 57.5% RH/RT, 14 days) was “Form B”. The “XRPD Result” value ([4]; 57.5% RH/RT, 28 days) was “Form B”, the “stability under stress conditions” value ([4]; 57.5% RH/RT, 97.3% RH/RT, 75% RH/40° C., 14 and 28 days) was “stable at the tested stress conditions” and the “XRPD Result” value ([4]; 75.3% RH/40° C., 14 days) was “Form B”. The “XRPD Result” value ([4]; 75.3% RH/40° C., 28 days) was “Form B”, the “XRPD Result” value ([4]; 97.3% RH/RT, 14 days) was “Form B” and the “XRPD Result” value ([4]; 97.3% RH/RT, 28 days) was “Form B”. For the same compound, the “solid form after slurry in water (XRPD)” value [5] was “remained unchanged” and the “relative stability of anhydrous forms” value [6] was “likely the most stable anhydrous form under the tested conditions”.

With `CN(C)C(=O)Nc1cc(Oc2cnc3nc(Nc4cc(C(F)(F)F)cn(C)c4=O)n(C)c3c2C#N)ccn1` [Form C] the “Desorp Mass Change (%)” value ([3]; DVS cycle 1, target RH 5%) was 0.028%, the “Sorp Mass Change (%)” value ([3]; DVS cycle 1, target RH 5%) was 0.005% and the “Desorp Mass Change (%)” value ([3]; DVS cycle 1, target RH 15%) was 1.354%. The “Sorp Mass Change (%)” value ([3]; DVS cycle 1, target RH 15%) was 1.314%, the Hysteresis ([3]; DVS cycle 1, target RH 15%) was 0.040 and the “Desorp Mass Change (%)” value ([3]; DVS cycle 1, target RH 25%) was 1.757%. The “Sorp Mass Change (%)” value ([3]; DVS cycle 1, target RH 25%) was 1.741%, the Hysteresis ([3]; DVS cycle 1, target RH 25%) was 0.016 and the “Desorp Mass Change (%)” value ([3]; DVS cycle 1, target RH 35%) was 1.927%. The “Sorp Mass Change (%)” value ([3]; DVS cycle 1, target RH 35%) was 1.912%, the Hysteresis ([3]; DVS cycle 1, target RH 35%) was 0.015 and the “Desorp Mass Change (%)” value ([3]; DVS cycle 1, target RH 45%) was 2.061%. For the same compound, the “Sorp Mass Change (%)” value ([3]; DVS cycle 1, target RH 45%) was 2.017%, the Hysteresis ([3]; DVS cycle 1, target RH 45%) was 0.044 and the “Desorp Mass Change (%)” value ([3]; DVS cycle 1, target RH 55%) was 2.161%. The “Sorp Mass Change (%)” value ([3]; DVS cycle 1, target RH 55%) was 2.100%, the Hysteresis ([3]; DVS cycle 1, target RH 55%) was 0.061 and the “Desorp Mass Change (%)” value ([3]; DVS cycle 1, target RH 65%) was 2.240%. The “Sorp Mass Change (%)” value ([3]; DVS cycle 1, target RH 65%) was 2.178%, the Hysteresis ([3]; DVS cycle 1, target RH 65%) was 0.061 and the “Desorp Mass Change (%)” value ([3]; DVS cycle 1, target RH 75%) was 2.323%. The “Sorp Mass Change (%)” value ([3]; DVS cycle 1, target RH 75%) was 2.262%, the Hysteresis ([3]; DVS cycle 1, target RH 75%) was 0.061 and the “Desorp Mass Change (%)” value ([3]; DVS cycle 1, target RH 85%) was 2.437%. For the same compound, the “Sorp Mass Change (%)” value ([3]; DVS cycle 1, target RH 85%) was 2.375%, the Hysteresis ([3]; DVS cycle 1, target RH 85%) was 0.062 and the “Desorp Mass Change (%)” value ([3]; DVS cycle 1, target RH 95%) was 2.620%. The “Sorp Mass Change (%)” value ([3]; DVS cycle 1, target RH 95%) was 2.620%, the “weight gain during sorption” value ([3]; 5-25% RH) was 1.74% and the “weight gain during sorption” value ([3]; 5-95% RH) was 2.6%. The “XRPD pattern of the post-DVS sample” value [3] was “consistent with Form C with slight peak shifting”.

In the case of `CN(C)C(=O)Nc1cc(Oc2cnc3nc(Nc4cc(C(F)(F)F)cn(C)c4=O)n(C)c3c2C#N)ccn1` [Form I], the “relative stability of anhydrous forms” value ([6]; listed as Compound 1 Form I) is reported as “metastable form with respect to Form B”.
